# Tested on: 997726-040-R-J2-PDC tumor spheroids, viability
# Assay: Anticancer human tumor 997726-040-R-J2-PDC patient-derived squamous cell lung carcinoma cell line growth inhibition [PI3K]
# Details: spheroids with HUVEC and MSC; for IC50: curve of first compound; for viability, T/C: stronger effect = lower value
# Summary of the method: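 Multi-cell spheroids combine tumor cells with HUVEC and human MSCs, treated with targeted agents alone or with inavolisib, alpelisib, duvelisib or copanlisib. Concentrations fall in half-log steps from at or near clinical Cmax, or from 10 microM where Cmax is unknown; viability read-out.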
# [1] = second compound 0.00316 µM, first compound 0.000316 µM
# [2] = second compound 0.00316 µM, first compound 0.001 µM
# [3] = second compound 0.00316 µM, first compound 0.00316 µM
# [4] = second compound 0.00316 µM, first compound 0.01 µM
# [5] = second compound 0.00316 µM, first compound 0.0316 µM
# [6] = second compound 0.00316 µM, first compound 0.1 µM
# [7] = second compound 0.01 µM, first compound 0.000316 µM
# [8] = second compound 0.01 µM, first compound 0.001 µM
# [9] = second compound 0.01 µM, first compound 0.00316 µM
# [10] = second compound 0.01 µM, first compound 0.01 µM
# [11] = second compound 0.01 µM, first compound 0.0316 µM
# [12] = second compound 0.01 µM, first compound 0.1 µM
# [13] = second compound 0.0316 µM, first compound 0.000316 µM
# [14] = second compound 0.0316 µM, first compound 0.001 µM
# [15] = second compound 0.0316 µM, first compound 0.00316 µM
# [16] = second compound 0.0316 µM, first compound 0.01 µM
# [17] = second compound 0.0316 µM, first compound 0.0316 µM
# [18] = second compound 0.0316 µM, first compound 0.1 µM
# [19] = second compound 0.1 µM, first compound 0.000316 µM
# [20] = second compound 0.1 µM, first compound 0.001 µM
# [21] = second compound 0.1 µM, first compound 0.00316 µM
# [22] = second compound 0.1 µM, first compound 0.01 µM
# [23] = second compound 0.1 µM, first compound 0.0316 µM
# [24] = second compound 0.1 µM, first compound 0.1 µM
# [25] = second compound 0.316 µM, first compound 0.000316 µM
# [26] = second compound 0.316 µM, first compound 0.001 µM
# [27] = second compound 0.316 µM, first compound 0.00316 µM
# [28] = second compound 0.316 µM, first compound 0.01 µM
# [29] = second compound 0.316 µM, first compound 0.0316 µM
# [30] = second compound 0.316 µM, first compound 0.1 µM
# [31] = second compound 1 µM, first compound 0.000316 µM
# [32] = second compound 1 µM, first compound 0.001 µM
# [33] = second compound 1 µM, first compound 0.00316 µM
# [34] = second compound 1 µM, first compound 0.01 µM
# [35] = second compound 1 µM, first compound 0.0316 µM
# [36] = second compound 1 µM, first compound 0.1 µM
# [37] = second compound 0.00316 µM, first compound 0.316 µM
# [38] = second compound 0.00316 µM, first compound 1 µM
# [39] = second compound 0.00316 µM, first compound 3.16 µM
# [40] = second compound 0.00316 µM, first compound 10 µM
# [41] = second compound 0.01 µM, first compound 0.316 µM
# [42] = second compound 0.01 µM, first compound 1 µM
# [43] = second compound 0.01 µM, first compound 3.16 µM
# [44] = second compound 0.01 µM, first compound 10 µM
# [45] = second compound 0.0316 µM, first compound 0.316 µM
# [46] = second compound 0.0316 µM, first compound 1 µM
# [47] = second compound 0.0316 µM, first compound 3.16 µM
# [48] = second compound 0.0316 µM, first compound 10 µM
# [49] = second compound 0.1 µM, first compound 0.316 µM
# [50] = second compound 0.1 µM, first compound 1 µM
# [51] = second compound 0.1 µM, first compound 3.16 µM
# [52] = second compound 0.1 µM, first compound 10 µM
# [53] = second compound 0.316 µM, first compound 0.316 µM
# [54] = second compound 0.316 µM, first compound 1 µM
# [55] = second compound 0.316 µM, first compound 3.16 µM
# [56] = second compound 0.316 µM, first compound 10 µM
# [57] = second compound 1 µM, first compound 0.316 µM
# [58] = second compound 1 µM, first compound 1 µM
# [59] = second compound 1 µM, first compound 3.16 µM
# [60] = second compound 1 µM, first compound 10 µM
# 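Further: spheroids exposed to compounds for seven days before readout.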
compound,measurement,setting,value
CC(=O)c1c(C)c2cnc(Nc3ccc(N4CCNCC4)cn3)nc2n(C2CCCC2)c1=O + COc1c(OCCCN2CCOCC2)ccc2c3n(c(=NC(=O)c4cnc(N)nc4)nc12)CCN3,IC50,second compound 0.00316 µM,> 100 nM
same,IC50,second compound 0.01 µM,15.6 nM
same,IC50,second compound 0.0316 µM,< 0.316 nM
same,IC50,second compound 0.1 µM,< 0.316 nM
same,IC50,second compound 0.316 µM,< 0.316 nM
same,IC50,second compound 1 µM,< 0.316 nM
same,"viability, T/C",[1],73%
same,"viability, T/C",[2],77.6%
same,"viability, T/C",[3],69.8%
same,"viability, T/C",[4],75%
same,"viability, T/C",[5],60.1%
same,"viability, T/C",[6],52.4%
same,"viability, T/C",[7],62.1%
same,"viability, T/C",[8],60.9%
same,"viability, T/C",[9],53.8%
same,"viability, T/C",[10],55.8%
same,"viability, T/C",[11],44.4%
same,"viability, T/C",[12],39.2%
same,"viability, T/C",[13],32.2%
same,"viability, T/C",[14],42.1%
same,"viability, T/C",[15],35.3%
same,"viability, T/C",[16],34.1%
same,"viability, T/C",[17],28.1%
same,"viability, T/C",[18],25.7%
same,"viability, T/C",[19],20.6%
same,"viability, T/C",[20],23.3%
same,"viability, T/C",[21],23.9%
same,"viability, T/C",[22],21%
same,"viability, T/C",[23],18.7%
same,"viability, T/C",[24],17.1%
same,"viability, T/C",[25],5.23%
same,"viability, T/C",[26],5.65%
same,"viability, T/C",[27],6.03%
same,"viability, T/C",[28],5.28%
same,"viability, T/C",[29],5.14%
same,"viability, T/C",[30],3.76%
same,"viability, T/C",[31],1.5%
same,"viability, T/C",[32],1.26%
same,"viability, T/C",[33],1.01%
same,"viability, T/C",[34],1.2%
same,"viability, T/C",[35],1.19%
same,"viability, T/C",[36],1.06%
CC(C)n1nc(-c2ccc3oc(N)nc3c2)c2c(N)ncnc21 + COc1c(OCCCN2CCOCC2)ccc2c3n(c(=NC(=O)c4cnc(N)nc4)nc12)CCN3,IC50,second compound 0.00316 µM,18.2 nM
same,IC50,second compound 0.01 µM,2.97 nM
same,IC50,second compound 0.0316 µM,< 0.316 nM
same,IC50,second compound 0.1 µM,< 0.316 nM
same,IC50,second compound 0.316 µM,< 0.316 nM
same,IC50,second compound 1 µM,< 0.316 nM
same,"viability, T/C",[1],74%
same,"viability, T/C",[2],76.6%
same,"viability, T/C",[3],70%
same,"viability, T/C",[4],61.1%
same,"viability, T/C",[5],39.9%
same,"viability, T/C",[6],16.4%
same,"viability, T/C",[7],57.2%
same,"viability, T/C",[8],57.9%
same,"viability, T/C",[9],45.5%
same,"viability, T/C",[10],42.2%
same,"viability, T/C",[11],33.2%
same,"viability, T/C",[12],13.1%
same,"viability, T/C",[13],32.4%
same,"viability, T/C",[14],35.5%
same,"viability, T/C",[15],32.5%
same,"viability, T/C",[16],29.6%
same,"viability, T/C",[17],23.7%
same,"viability, T/C",[18],5.54%
same,"viability, T/C",[19],25.5%
same,"viability, T/C",[20],22.1%
same,"viability, T/C",[21],21.3%
same,"viability, T/C",[22],16.3%
same,"viability, T/C",[23],9.54%
same,"viability, T/C",[24],2.12%
same,"viability, T/C",[25],5.5%
same,"viability, T/C",[26],4.4%
same,"viability, T/C",[27],4.05%
same,"viability, T/C",[28],2.91%
same,"viability, T/C",[29],1.89%
same,"viability, T/C",[30],1.02%
same,"viability, T/C",[31],1.83%
same,"viability, T/C",[32],1.51%
same,"viability, T/C",[33],1.18%
same,"viability, T/C",[34],1.56%
same,"viability, T/C",[35],1.91%
same,"viability, T/C",[36],0.84%
CCCS(=O)(=O)Nc1ccc(F)c(C(=O)c2c[nH]c3ncc(-c4ccc(Cl)cc4)cc23)c1F + COc1c(OCCCN2CCOCC2)ccc2c3n(c(=NC(=O)c4cnc(N)nc4)nc12)CCN3,IC50,second compound 0.00316 µM,6610 nM
same,IC50,second compound 0.01 µM,5360 nM
same,IC50,second compound 0.0316 µM,31.6 nM
same,IC50,second compound 0.1 µM,< 31.6 nM
same,IC50,second compound 0.316 µM,< 31.6 nM
same,IC50,second compound 1 µM,< 31.6 nM
same,"viability, T/C",[5],68.1%
same,"viability, T/C",[6],91.1%
same,"viability, T/C",[37],101%
same,"viability, T/C",[38],114%
same,"viability, T/C",[39],136%
same,"viability, T/C",[40],20.7%
same,"viability, T/C",[11],52.6%
same,"viability, T/C",[12],70.3%
same,"viability, T/C",[41],69.6%
same,"viability, T/C",[42],76%
same,"viability, T/C",[43],94%
same,"viability, T/C",[44],23.2%
same,"viability, T/C",[17],39.5%
same,"viability, T/C",[18],41.8%
same,"viability, T/C",[45],44.2%
same,"viability, T/C",[46],49.9%
same,"viability, T/C",[47],57.1%
same,"viability, T/C",[48],19.6%
same,"viability, T/C",[23],24%
same,"viability, T/C",[24],24.6%
same,"viability, T/C",[49],25.3%
same,"viability, T/C",[50],28.4%
same,"viability, T/C",[51],28%
same,"viability, T/C",[52],16.5%
same,"viability, T/C",[29],5.93%
same,"viability, T/C",[30],6.12%
same,"viability, T/C",[53],5.74%
same,"viability, T/C",[54],7.01%
same,"viability, T/C",[55],8.12%
same,"viability, T/C",[56],7.64%
same,"viability, T/C",[35],1.54%
same,"viability, T/C",[36],1.08%
same,"viability, T/C",[57],1.77%
same,"viability, T/C",[58],1.68%
same,"viability, T/C",[59],2.43%
same,"viability, T/C",[60],1.82%
CNC(=O)c1ccc(N2C(=S)N(c3ccc(C#N)c(C(F)(F)F)c3)C(=O)C2(C)C)cc1F + COc1c(OCCCN2CCOCC2)ccc2c3n(c(=NC(=O)c4cnc(N)nc4)nc12)CCN3,IC50,second compound 0.00316 µM,> 10000 nM
same,IC50,second compound 0.01 µM,> 10000 nM
same,IC50,second compound 0.0316 µM,< 31.6 nM
same,IC50,second compound 0.1 µM,< 31.6 nM
same,IC50,second compound 0.316 µM,< 31.6 nM
same,IC50,second compound 1 µM,< 31.6 nM
same,"viability, T/C",[5],73.4%
same,"viability, T/C",[6],81.8%
same,"viability, T/C",[37],70.3%
same,"viability, T/C",[38],76.1%
same,"viability, T/C",[39],77.7%
same,"viability, T/C",[40],68.2%
same,"viability, T/C",[11],66.2%
same,"viability, T/C",[12],61.2%
same,"viability, T/C",[41],54.8%
same,"viability, T/C",[42],54.8%
same,"viability, T/C",[43],56.4%
same,"viability, T/C",[44],50%
same,"viability, T/C",[17],38.2%
same,"viability, T/C",[18],40.2%
same,"viability, T/C",[45],35.9%
same,"viability, T/C",[46],36.6%
same,"viability, T/C",[47],31.1%
same,"viability, T/C",[48],30.9%
same,"viability, T/C",[23],24.3%
same,"viability, T/C",[24],27.4%
same,"viability, T/C",[49],21.6%
same,"viability, T/C",[50],24.9%
same,"viability, T/C",[51],20.5%
same,"viability, T/C",[52],22.4%
same,"viability, T/C",[29],5.92%
same,"viability, T/C",[30],6.55%
same,"viability, T/C",[53],5.84%
same,"viability, T/C",[54],6.05%
same,"viability, T/C",[55],6.82%
same,"viability, T/C",[56],4.31%
same,"viability, T/C",[35],1.55%
same,"viability, T/C",[36],1.44%
same,"viability, T/C",[57],1.25%
same,"viability, T/C",[58],1.13%
same,"viability, T/C",[59],1.39%
same,"viability, T/C",[60],1.47%
